Results published in article PMC7785020, “A unique hormonal recognition feature of the human glucagon-like peptide-2 receptor” (Cell Research, 2020).
Where a chain is given by its changes, count along the chain named.

Legend:
GLP-2R K231^2.67A = target: T1, GLP-2R K231^2.67A (Homo sapiens, UniProt O95838, K231A); assay: radioligand competition binding, K231^2.67A; parameters: WT (1–553); expressed in transfected cells; settings: COS-7, K231^2.67A; [^125I]GLP-2(1–33, M10Y) 10–15 pM, 4 h, 4 °C; n ≥ 3 in duplicate
T1 sequence (O95838 1-553 K231A): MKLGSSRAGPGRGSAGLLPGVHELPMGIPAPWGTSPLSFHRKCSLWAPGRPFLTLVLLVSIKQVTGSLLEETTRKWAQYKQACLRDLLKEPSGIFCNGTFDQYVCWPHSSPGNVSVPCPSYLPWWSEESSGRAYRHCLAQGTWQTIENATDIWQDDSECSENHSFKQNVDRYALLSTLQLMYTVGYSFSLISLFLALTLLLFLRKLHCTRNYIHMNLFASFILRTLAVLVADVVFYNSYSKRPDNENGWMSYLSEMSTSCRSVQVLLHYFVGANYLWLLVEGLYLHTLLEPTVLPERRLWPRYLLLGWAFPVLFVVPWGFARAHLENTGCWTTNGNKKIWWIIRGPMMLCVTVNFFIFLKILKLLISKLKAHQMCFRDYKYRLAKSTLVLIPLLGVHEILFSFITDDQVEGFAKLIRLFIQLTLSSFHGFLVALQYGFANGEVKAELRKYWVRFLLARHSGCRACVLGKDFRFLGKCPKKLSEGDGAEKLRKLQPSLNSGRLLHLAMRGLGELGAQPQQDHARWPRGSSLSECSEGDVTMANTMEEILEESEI
Protocol: (§1) A stepwise oxidation reaction was performed by addition of 6 aliquots of 5 µL ChloramineT (30 µL/mL) with a 1-min interval during constant stirring. The reaction was terminated by the addition of 400 µL phase A (0.1% trifluoracetic acid) before being fractionated into 1 mL volume by reverse-phase high-performance liquid chromatography (RP-HPLC, Waters 600 SimiPrep system) on a C18 column. The iodinated protein was […] by increasing concentrations of phase B (Acetonitrile + 0.1% TFA) and tested for competitive binding ability.
(§2) One day before transfection, the COS-7 cells were seeded in 75 cm^2 culture flasks (3 million cells/flask) in DMEM, containing 3.9 g/L NaHCO3 and supplemented with 10% FBS, 1% L-glutamine, 180 units/mL penicillin and 45 µg/mL streptomycin. After an overnight culture at 37 °C, 10% CO2 and 95% air humidity, the cells were transiently transfected with different GLP-2R constructs or pcDNA3.1 vector as previously described.[52] Following 24-h incubation, the cells were transferred to Costa® microtiter plates (150,000 cells/well, PerkinElmer) to achieve a 5%–10% specific binding. […] The cells were then washed twice in binding buffer (4 °C), lysed and counted for radioactivity using a Wallac Gamma Counter (PerkinElmer).

GLP-2R W249^ECL1A = target: T2, GLP-2R W249^ECL1A (Homo sapiens, UniProt O95838, W249A); assay: radioligand competition binding, W249^ECL1A; parameters: WT (1–553); expressed in transfected cells; settings: COS-7, W249^ECL1A; [^125I]GLP-2(1–33, M10Y) 10–15 pM, 4 h, 4 °C; mean ± SEM, n ≥ 3 in duplicate
T2 sequence (O95838 1-553 W249A): T1 sequence (O95838 1-553 K231A) with A231K, W249A
Protocol: as §1, §2

GLP-2R WT (1–553) = target: T3, GLP-2R WT (1–553) (Homo sapiens, UniProt O95838); assay: radioligand competition binding, WT; settings: COS-7, WT (1–553); [^125I]GLP-2(1–33, M10Y) 10–15 pM, 4 h, 4 °C; mean ± SEM, n ≥ 3 in duplicate
T3 construct: WT (1–553); expressed in transfected cells; host or cells: COS-7
T3 sequence (O95838 whole entry): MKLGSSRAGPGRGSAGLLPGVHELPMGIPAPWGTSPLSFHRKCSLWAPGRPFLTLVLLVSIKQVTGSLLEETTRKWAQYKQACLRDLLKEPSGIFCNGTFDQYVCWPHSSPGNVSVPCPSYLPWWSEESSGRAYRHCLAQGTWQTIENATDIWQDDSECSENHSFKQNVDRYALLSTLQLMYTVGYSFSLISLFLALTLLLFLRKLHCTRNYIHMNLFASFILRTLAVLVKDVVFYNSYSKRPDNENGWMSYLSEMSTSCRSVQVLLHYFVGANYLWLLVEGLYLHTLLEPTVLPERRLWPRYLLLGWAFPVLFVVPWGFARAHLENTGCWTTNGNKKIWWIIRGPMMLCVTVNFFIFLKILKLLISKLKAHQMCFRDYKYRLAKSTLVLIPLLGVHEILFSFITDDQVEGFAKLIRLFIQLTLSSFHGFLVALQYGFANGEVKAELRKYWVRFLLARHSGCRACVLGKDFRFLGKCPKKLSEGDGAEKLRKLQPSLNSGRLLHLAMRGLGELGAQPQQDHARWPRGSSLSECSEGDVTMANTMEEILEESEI
Protocol: as §1, §2

GLP-2R R344^5.40A = target: T4, GLP-2R R344^5.40A (Homo sapiens, UniProt O95838, R344A); assay: radioligand competition binding, R344^5.40A; parameters: WT (1–553); expressed in transfected cells; host or cells: COS-7; settings: COS-7, R344^5.40A; [^125I]GLP-2(1–33, M10Y) 10–15 pM, 4 h, 4 °C; mean ± SEM, n ≥ 3 in duplicate
T4 sequence (O95838 1-553 R344A): T1 sequence (O95838 1-553 K231A) with A231K, R344A
Protocol: as §1, §2

| Structure (SMILES) | % Binding of WT (GLP-2R K231^2.67A) | % Binding of WT (GLP-2R W249^ECL1A) | % Binding of WT (GLP-2R WT (1–553)) | % Binding of WT (GLP-2R R344^5.40A) |
| --- | --- | --- | --- | --- |
| CC[C@H](C)[C@H](NC(=O)[C@H](Cc1ccccc1)NC(=O)[C@H](CC(=O)O)NC(=O)[C@H](CCCNC(=N)N)NC(=O)[C@H](C)NC(=O)[C@H](C)NC(=O)[C@H](CC(C)C)NC(=O)[C@H](CC(N)=O)NC(=O)[C@H](CC(=O)O)NC(=O)[C@H](CC(C)C)NC(=O)[C@@H](NC(=O)[C@@H](NC(=O)[C@H](CC(N)=O)NC(=O)[C@H](CCSC)NC(=O)[C@H](CCC(=O)O)NC(=O)[C@H](CC(=O)O)NC(=O)[C@H](CO)NC(=O)[C@H](Cc1ccccc1)NC(=O)[C@H](CO)NC(=O)CNC(=O)[C@H](CC(=O)O)NC(=O)[C@H](C)NC(=O)[C@@H](N)Cc1c[nH]cn1)[C@@H](C)O)[C@@H](C)CC)C(=O)N[C@@H](CC(N)=O)C(=O)N[C@@H](Cc1c[nH]c2ccccc12)C(=O)N[C@@H](CC(C)C)C(=O)N[C@H](C(=O)N[C@@H](CCC(N)=O)C(=O)N[C@H](C(=O)N[C@@H](CCCCN)C(=O)N[C@H](C(=O)N[C@H](C(=O)N[C@@H](CC(=O)O)C(=O)O)[C@@H](C)O)[C@@H](C)CC)[C@@H](C)O)[C@@H](C)CC [Human GLP-2 (1–33)] | N.B. | 2.2 ± 1.2 % | 99.2 ± 2.3% | 5.0 ± 0.8 % |
| CC[C@H](C)[C@H](NC(=O)[C@H](Cc1ccccc1)NC(=O)[C@H](CC(=O)O)NC(=O)[C@H](CCCNC(=N)N)NC(=O)[C@H](C)NC(=O)[C@H](C)NC(=O)[C@H](CC(C)C)NC(=O)[C@H](CC(N)=O)NC(=O)[C@H](CC(=O)O)NC(=O)[C@H](CC(C)C)NC(=O)[C@@H](NC(=O)[C@@H](NC(=O)[C@H](CC(N)=O)NC(=O)[C@H](CCSC)NC(=O)[C@H](CCC(=O)O)NC(=O)[C@H](CC(=O)O)NC(=O)[C@H](CO)NC(=O)[C@H](Cc1ccccc1)NC(=O)[C@H](CO)NC(=O)CNC(=O)[C@H](CC(=O)O)NC(=O)CNC(=O)[C@@H](N)Cc1c[nH]cn1)[C@@H](C)O)[C@@H](C)CC)C(=O)N[C@@H](CC(N)=O)C(=O)N[C@@H](Cc1c[nH]c2ccccc12)C(=O)N[C@@H](CC(C)C)C(=O)N[C@H](C(=O)N[C@@H](CCC(N)=O)C(=O)N[C@H](C(=O)N[C@@H](CCCCN)C(=O)N[C@H](C(=O)N[C@H](C(=O)N[C@@H](CC(=O)O)C(=O)O)[C@@H](C)O)[C@@H](C)CC)[C@@H](C)O)[C@@H](C)CC [Teduglutide] | N.B. | 2.9 ± 2.0 % | 99.7 ± 1.9% | 3.5 ± 0.8 % |
